Test results from PubChem BioAssay AID2060340 (Molecular Pharmacology Branch, DTP, NCI, 2025).
Where “and” joins values, the source holds several entries; their conditions need not be identical. Equal values may be shown once.

Tested on: 349418-098-R-PDC spheroids, viability, % test/control
Assay: Anticancer human tumor 349418-098-R-PDC patient-derived lung adenocarcinoma cell line growth inhibition [IpAb]
Conditions: spheroids with HUVEC and MSC; for viability, T/C: stronger effect = lower value
Summary of the method: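 Spheroids of 60% malignant cells, 25% HUVEC and 15% MSC were exposed to targeted agents combined with ipatasertib or abemaciclib. Doses started at or near clinical Cmax (10 microM when unknown) and fell in half-log steps.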

[1] = curve of first compound, second compound 0.1 µM
[2] = curve of first compound, second compound 0.316 µM
[3] = curve of first compound, second compound 1 µM
[4] = curve of first compound, second compound 3.16 µM
[5] = curve of first compound, second compound 10 µM
[6] = second compound 0.1 µM, first compound 0.0316 µM
[7] = second compound 0.1 µM, first compound 0.1 µM
[8] = second compound 0.1 µM, first compound 0.316 µM
[9] = second compound 0.1 µM, first compound 1 µM
[10] = second compound 0.1 µM, first compound 3.16 µM
[11] = second compound 0.1 µM, first compound 10 µM
[12] = second compound 0.316 µM, first compound 0.0316 µM
[13] = second compound 0.316 µM, first compound 0.1 µM
[14] = second compound 0.316 µM, first compound 0.316 µM
[15] = second compound 0.316 µM, first compound 1 µM
[16] = second compound 0.316 µM, first compound 3.16 µM
[17] = second compound 0.316 µM, first compound 10 µM
[18] = second compound 1 µM, first compound 0.0316 µM
[19] = second compound 1 µM, first compound 0.1 µM
[20] = second compound 1 µM, first compound 0.316 µM
[21] = second compound 1 µM, first compound 1 µM
[22] = second compound 1 µM, first compound 3.16 µM
[23] = second compound 1 µM, first compound 10 µM
[24] = second compound 3.16 µM, first compound 0.0316 µM
[25] = second compound 3.16 µM, first compound 0.1 µM
[26] = second compound 10 µM, first compound 0.0316 µM
[27] = second compound 10 µM, first compound 0.1 µM

Molecule `Cn1ncc(Cl)c1-c1cc(C(=O)NC(CN)Cc2cccc(F)c2)sc1Cl` (centres undefined) + CC(C)NCC(C(=O)N1CCN(c2ncnc3c2C(C)CC3O)CC1)c1ccc(Cl)cc1 has an IC50 [1] of 0.0908 µM, an IC50 [2] of under 0.0316 µM and an IC50 [3] of under 0.0316 µM. The IC50 [4] was under 0.0316 µM, the IC50 [5] was under 0.0316 µM and the viability, T/C [6] was 79.5%. It also gave a viability, T/C [7] of 45.1%, a viability, T/C [8] of 29.4% and a viability, T/C [9] of 12.3%. For the same molecule, the viability, T/C [10] was 6.88%, the viability, T/C [11] was 0.08% and the viability, T/C [12] was 49.7%. It also gave a viability, T/C [13] of 31.8%, a viability, T/C [14] of 25.3% and a viability, T/C [15] of 12.1%. For the same molecule, the viability, T/C [16] was 7.48%, the viability, T/C [17] was 0.08% and the viability, T/C [18] was 23.2%. For the same molecule, the viability, T/C [19] was 22.2%, the viability, T/C [20] was 15.9% and the viability, T/C [21] was 10.1%. It also gave a viability, T/C [22] of 6.54%, a viability, T/C [23] of 0.08% and a viability, T/C [24] of 15.3%. The viability, T/C [25] was 12.2%, the viability, T/C (second compound 3.16 µM, first compound 0.316 µM) was 10.8% and the viability, T/C (second compound 3.16 µM, first compound 1 µM) was 8.53%. It also gave a viability, T/C (second compound 3.16 µM, first compound 3.16 µM) of 6.62%, a viability, T/C (second compound 3.16 µM, first compound 10 µM) of 0.19% and a viability, T/C [26] of 7.77%. For the same molecule, the viability, T/C [27] was 8.14%, the viability, T/C (second compound 10 µM, first compound 0.316 µM) was 7.56% and the viability, T/C (second compound 10 µM, first compound 1 µM) was 6.63%. It also gave a viability, T/C (second compound 10 µM, first compound 3.16 µM) of 5.87% and a viability, T/C (second compound 10 µM, first compound 10 µM) of 0.18%.

`CC1(C)CCC(CN2CCN(c3ccc(C(=O)NS(=O)(=O)c4ccc(NCC5CCOCC5)c([N+](=O)[O-])c4)c(Oc4cnc5[nH]ccc5c4)c3)CC2)=C(c2ccc(Cl)cc2)C1` + CCN1CCN(Cc2ccc(Nc3ncc(F)c(-c4cc(F)c5nc(C)n(C(C)C)c5c4)n3)nc2)CC1 was tested, and the IC50 (curve of first compound, second compound 0.01 µM) was 1.81 µM, the IC50 (curve of first compound, second compound 0.0316 µM) was 1.64 µM and the IC50 [1] was under 0.0316 µM. The IC50 [2] was under 0.0316 µM, the IC50 [3] was under 0.0316 µM and the viability, T/C (second compound 0.01 µM, first compound 0.0316 µM) was 102%. It also gave a viability, T/C (second compound 0.01 µM, first compound 0.1 µM) of 75%, a viability, T/C (second compound 0.01 µM, first compound 0.316 µM) of 68.5% and a viability, T/C (second compound 0.01 µM, first compound 1 µM) of 67.8%. For the same molecule, the viability, T/C (second compound 0.01 µM, first compound 3.16 µM) was 42.9%, the viability, T/C (second compound 0.01 µM, first compound 10 µM) was 6.47% and the viability, T/C (second compound 0.0316 µM, first compound 0.0316 µM) was 60.8%. For the same molecule, the viability, T/C (second compound 0.0316 µM, first compound 0.1 µM) was 56.1%, the viability, T/C (second compound 0.0316 µM, first compound 0.316 µM) was 52.5% and the viability, T/C (second compound 0.0316 µM, first compound 1 µM) was 55.4%. For the same molecule, the viability, T/C (second compound 0.0316 µM, first compound 3.16 µM) was 44.1%, the viability, T/C (second compound 0.0316 µM, first compound 10 µM) was 6.96% and the viability, T/C [6] was 29.8%. For the same molecule, the viability, T/C [7] was 32.8%, the viability, T/C [8] was 29% and the viability, T/C [9] was 26.3%. The viability, T/C [10] was 24.2%, the viability, T/C [11] was 6.59% and the viability, T/C [12] was 20.6%. For the same molecule, the viability, T/C [13] was 19.6%, the viability, T/C [14] was 21.5% and the viability, T/C [15] was 18.6%. It also gave a viability, T/C [16] of 20.6%, a viability, T/C [17] of 4.86% and a viability, T/C [18] of 16.7%. The viability, T/C [19] was 18.6%, the viability, T/C [20] was 16% and the viability, T/C [21] was 17.9%. For the same molecule, the viability, T/C [22] was 17% and the viability, T/C [23] was 4.09%.

With `CC(C)n1nc(-c2ccc3oc(N)nc3c2)c2c(N)ncnc21` + CC(C)NCC(C(=O)N1CCN(c2ncnc3c2C(C)CC3O)CC1)c1ccc(Cl)cc1 the IC50 [1] was 0.000681 µM, the IC50 [2] was under 0.000316 µM and the IC50 [3] was under 0.000316 µM. For the same molecule, the IC50 [4] was under 0.000316 µM, the IC50 [5] was under 0.000316 µM and the viability, T/C (second compound 0.1 µM, first compound 0.000316 µM) was 69.4%. The viability, T/C (second compound 0.1 µM, first compound 0.001 µM) was 40.3%, the viability, T/C (second compound 0.1 µM, first compound 0.00316 µM) was 14.5% and the viability, T/C (second compound 0.1 µM, first compound 0.01 µM) was 7.8%. The viability, T/C [6] was 6.65%, the viability, T/C [7] was 6.26% and the viability, T/C (second compound 0.316 µM, first compound 0.000316 µM) was 31.8%. The viability, T/C (second compound 0.316 µM, first compound 0.001 µM) was 17.4%, the viability, T/C (second compound 0.316 µM, first compound 0.00316 µM) was 8.31% and the viability, T/C (second compound 0.316 µM, first compound 0.01 µM) was 5.95%. The viability, T/C [12] was 5.66%, the viability, T/C [13] was 5.5% and the viability, T/C (second compound 1 µM, first compound 0.000316 µM) was 14.4%. For the same molecule, the viability, T/C (second compound 1 µM, first compound 0.001 µM) was 8.54%, the viability, T/C (second compound 1 µM, first compound 0.00316 µM) was 5.9% and the viability, T/C (second compound 1 µM, first compound 0.01 µM) was 4.87%. For the same molecule, the viability, T/C [18] was 5.35%, the viability, T/C [19] was 4.7% and the viability, T/C (second compound 3.16 µM, first compound 0.000316 µM) was 10.7%. The viability, T/C (second compound 3.16 µM, first compound 0.001 µM) was 6.81%, the viability, T/C (second compound 3.16 µM, first compound 0.00316 µM) was 5.04% and the viability, T/C (second compound 3.16 µM, first compound 0.01 µM) was 4.7%. For the same molecule, the viability, T/C [24] was 4.32%, the viability, T/C [25] was 5.98% and the viability, T/C (second compound 10 µM, first compound 0.000316 µM) was 6.8%. For the same molecule, the viability, T/C (second compound 10 µM, first compound 0.001 µM) was 5.96%, the viability, T/C (second compound 10 µM, first compound 0.00316 µM) was 5.29% and the viability, T/C (second compound 10 µM, first compound 0.01 µM) was 3.92%. It also gave a viability, T/C [26] of 4.43% and a viability, T/C [27] of 4.42%.

For `CC(C)n1nc(-c2ccc3oc(N)nc3c2)c2c(N)ncnc21`, the viability, T/C (compound 0.000316 µM) was 93.8% and 89.8%, the viability, T/C (compound 0.001 µM) was 72.9% and 60.3% and the viability, T/C (compound 0.00316 µM) was 24.7% and 26.2%. For the same molecule, the viability, T/C (compound 0.01 µM) was 11% and 10.4%, the viability, T/C (compound 0.0316 µM) was 8.02% and 7.35% and the viability, T/C (compound 0.1 µM) was 7.57% and 6.78%. The IC50 (curve of compound) was 0.00173 µM and 0.00142 µM.

For `CCCS(=O)(=O)Nc1ccc(F)c(C(=O)c2c[nH]c3ncc(-c4ccc(Cl)cc4)cc23)c1F`, the viability, T/C (compound 0.0316 µM) was 69.3% and 61.6%, the viability, T/C (compound 0.1 µM) was 52% and 49.9% and the viability, T/C (compound 0.316 µM) was 51.7% and 55.5%. The viability, T/C (compound 1 µM) was 49.4% and 45.2%, the viability, T/C (compound 3.16 µM) was 50.4% and 46.2% and the viability, T/C (compound 10 µM) was 22.7% and 19.6%. The IC50 (curve of compound) was 1.85 µM and 1.09 µM.
